# Results reported in ChEMBL document CHEMBL1649156, “Antianaerobic activity of sulopenem compared to six other agents” (2009).
# Experiments:
# Type in all cases: functional
# Hoylesella oralis = assay: Antimicrobial activity in Prevotella oralis group by CLSI agar dilution method
# Prevotella veroralis = assay: Antimicrobial activity in Prevotella veroralis by CLSI agar dilution method
# Prevotella bergensis = assay: Antimicrobial activity in Prevotella bergensis by CLSI agar dilution method; settings: Hallella bergensis
# Prevotella salivae = assay: Antimicrobial activity in Prevotella salivae by CLSI agar dilution method; settings: Segatella salivae
# Hoylesella loescheii = assay: Antimicrobial activity in Prevotella loescheii by CLSI agar dilution method
# Prevotella sp. = assay: Antimicrobial activity in Prevotella sp.by CLSI agar dilution method
# Fusobacterium nucleatum = assay: Antimicrobial activity in Fusobacterium nucleatum by CLSI agar dilution method
# [1] = test system: Fusobacterium necrophorum; assay: Antimicrobial activity in Fusobacterium necrophorum by CLSI agar dilution method
# Fusobacterium mortiferum = assay: Antimicrobial activity in Fusobacterium mortiferum by CLSI agar dilution method
# Fusobacterium varium = assay: Antimicrobial activity in Fusobacterium varium by CLSI agar dilution method
# Finegoldia magna = assay: Antimicrobial activity in Finegoldia magna by CLSI agar dilution method
# Parvimonas micra = assay: Antimicrobial activity in Micromonas micros by CLSI agar dilution method
# [2] = test system: Peptostreptococcus anaerobius; assay: Antimicrobial activity in Peptostreptococcus anaerobius by CLSI agar dilution method
# [3] = test system: Peptoniphilus asaccharolyticus; assay: Antimicrobial activity in Peptoniphilus asaccharolyticus by CLSI agar dilution method
# Anaerococcus tetradius = assay: Antimicrobial activity in Anaerococcus tetradius by CLSI agar dilution method
# Anaerococcus prevotii = assay: Antimicrobial activity in Anaerococcus prevotii by CLSI agar dilution method
# Lactobacillus = assay: Antimicrobial activity in Lactobacillus by CLSI agar dilution method
# Bifidobacterium = assay: Antimicrobial activity in Bifidobacterium by CLSI agar dilution method
# Actinomyces = assay: Antimicrobial activity in Actinomyces by CLSI agar dilution method
# Eggerthella lenta = assay: Antimicrobial activity in Eggerthella lenta by CLSI agar dilution method
# Clostridium perfringens = assay: Antimicrobial activity in Clostridium perfringens by CLSI agar dilution method
# Clostridioides difficile = assay: Antimicrobial activity in Clostridium difficile by CLSI agar dilution method
# Clostridium sp. = assay: Antimicrobial activity in Clostridium sp. by CLSI agar dilution method
# Clostridium tertium = assay: Antimicrobial activity in Clostridium tertium by CLSI agar dilution method
# Thomasclavelia ramosa = assay: Antimicrobial activity in Clostridium ramosum by CLSI agar dilution method
# Clostridium cadaveris = assay: Antimicrobial activity in Clostridium cadaveris by CLSI agar dilution method
# [4] = test system: Paraclostridium bifermentans; assay: Antimicrobial activity in Clostridium bifermentans by CLSI agar dilution method
# [Clostridium] innocuum = Antimicrobial activity in Clostridium innocuum by CLSI agar dilution method
# [5] = test system: Paeniclostridium sordellii; assay: Antimicrobial activity in Clostridium sordellii by CLSI agar dilution method; settings: Paraclostridium sordellii
# Clostridium butyricum = assay: Antimicrobial activity in Clostridium butyricum by CLSI agar dilution method
# [6] = test system: Enterocloster clostridioformis; assay: Antimicrobial activity in Clostridium clostridioforme by CLSI agar dilution method
# Bacteroides fragilis = assay: Antimicrobial activity in Bacteroides fragilis by CLSI agar dilution method
# [7] = test system: Bacteroides thetaiotaomicron; assay: Antimicrobial activity in Bacteroides thetaiotaomicron by CLSI agar dilution method
# Bacteroides ovatus = assay: Antimicrobial activity in Bacteroides ovatus by CLSI agar dilution method
# Phocaeicola vulgatus = assay: Antimicrobial activity in Bacteroides vulgatus by CLSI agar dilution method
# [8] = test system: Parabacteroides distasonis; assay: Antimicrobial activity in Bacteroides distasonis by CLSI agar dilution method
# Bacteroides uniformis = assay: Antimicrobial activity in Bacteroides uniformis by CLSI agar dilution method
# Bacteroides stercoris = assay: Antimicrobial activity in Bacteroides stercoris by CLSI agar dilution method
# Prevotella bivia = assay: Antimicrobial activity in Prevotella bivia by CLSI agar dilution method
# Prevotella buccae = assay: Antimicrobial activity in Prevotella buccae by CLSI agar dilution method; settings: Segatella buccae
# [9] = test system: Prevotella melaninogenica; assay: Antimicrobial activity in Prevotella melaninogenica by CLSI agar dilution method
# Prevotella denticola = assay: Antimicrobial activity in Prevotella denticola by CLSI agar dilution method
# Prevotella intermedia = assay: Antimicrobial activity in Prevotella intermedia by CLSI agar dilution method
# Prevotella nigrescens = assay: Antimicrobial activity in Prevotella nigrescens by CLSI agar dilution method
# Prevotella corporis = assay: Antimicrobial activity in Prevotella corporis by CLSI agar dilution method
# Prevotella disiens = assay: Antimicrobial activity in Prevotella disiens by CLSI agar dilution method
# Tissierella praeacuta = assay: Antimicrobial activity in Clostridium hastiforme by CLSI agar dilution method
# Porphyromonas gingivalis = assay: Antimicrobial activity in Porphyromonas gingivalis by CLSI agar dilution method
structure (smiles),measurement,setting,value
CCC[C@@H]1C[C@@H](C(=O)N[C@@H]([C@H]2O[C@H](SC)[C@H](O)[C@@H](O)[C@H]2O)[C@H](C)Cl)N(C)C1 [CLINDAMYCIN],MIC,Hoylesella oralis,≤ 0.016 µg/mL
same,MIC,Prevotella veroralis,≤ 0.016 µg/mL
same,MIC,Prevotella bergensis,≤ 0.016 µg/mL
same,MIC,Prevotella salivae,≤ 0.016 µg/mL
same,MIC,Hoylesella loescheii,≤ 0.016 µg/mL
same,MIC,Prevotella sp.,≤ 0.016 µg/mL
same,MIC50,Fusobacterium nucleatum,0.06 µg/mL
same,MIC90,Fusobacterium nucleatum,0.125 µg/mL
same,MIC,[1],≤ 0.016 µg/mL
same,MIC50,[1],0.03 µg/mL
same,MIC50,Fusobacterium mortiferum,0.06 µg/mL
same,MIC90,Fusobacterium mortiferum,0.125 µg/mL
same,MIC50,Fusobacterium varium,8 µg/mL
same,MIC90,Fusobacterium varium,32 µg/mL
same,MIC50,Finegoldia magna,0.125 µg/mL
same,MIC90,Finegoldia magna,2 µg/mL
same,MIC,Parvimonas micra,0.125 µg/mL
same,MIC50,Parvimonas micra,0.125 µg/mL
same,MIC90,Parvimonas micra,0.25 µg/mL
same,MIC,[2],≤ 0.016 µg/mL
same,MIC50,[2],≤ 0.016 µg/mL
same,MIC90,[2],0.25 µg/mL
same,MIC,[3],0.06 µg/mL
same,MIC50,[3],0.125 µg/mL
same,MIC50,Anaerococcus tetradius,0.5 µg/mL
same,MIC90,Anaerococcus tetradius,1 µg/mL
same,MIC,Anaerococcus prevotii,0.125 µg/mL
same,MIC50,Lactobacillus,0.5 µg/mL
same,MIC90,Lactobacillus,4 µg/mL
same,MIC50,Bifidobacterium,0.03 µg/mL
same,MIC90,Bifidobacterium,> 32 µg/mL
same,MIC,Actinomyces,0.03 µg/mL
same,MIC50,Actinomyces,0.125 µg/mL
same,MIC50,Eggerthella lenta,0.25 µg/mL
same,MIC90,Eggerthella lenta,1 µg/mL
same,MIC50,Clostridium perfringens,0.5 µg/mL
same,MIC90,Clostridium perfringens,2 µg/mL
same,MIC50,Clostridioides difficile,4 µg/mL
same,MIC90,Clostridioides difficile,> 32 µg/mL
same,MIC50,Clostridium sp.,1 µg/mL
same,MIC90,Clostridium sp.,16 µg/mL
same,MIC,Clostridium tertium,8 µg/mL
same,MIC50,Clostridium tertium,8 µg/mL
same,MIC,Thomasclavelia ramosa,2 µg/mL
same,MIC,Clostridium cadaveris,0.06 µg/mL
same,MIC,[4],0.125 µg/mL
same,MIC,[Clostridium] innocuum,0.03 µg/mL
same,MIC,[5],0.25 µg/mL
same,MIC,Clostridium butyricum,2 µg/mL
same,MIC,[6],0.03 µg/mL
same,MIC50,Bacteroides fragilis,1 µg/mL
same,MIC90,Bacteroides fragilis,> 32 µg/mL
same,MIC50,[7],4 µg/mL
same,MIC90,[7],> 32 µg/mL
same,MIC50,Bacteroides ovatus,2 µg/mL
same,MIC90,Bacteroides ovatus,> 32 µg/mL
same,MIC50,Phocaeicola vulgatus,0.03 µg/mL
same,MIC90,Phocaeicola vulgatus,1 µg/mL
same,MIC50,[8],4 µg/mL
same,MIC90,[8],16 µg/mL
same,MIC,Bacteroides uniformis,> 1 µg/mL
same,MIC50,Bacteroides uniformis,2 µg/mL
same,MIC,Bacteroides stercoris,> 4 µg/mL
same,MIC50,Bacteroides stercoris,8 µg/mL
same,MIC50,Prevotella bivia,≤ 0.016 µg/mL
same,MIC90,Prevotella bivia,> 32 µg/mL
same,MIC,Prevotella buccae,≤ 0.016 µg/mL
same,MIC50,Prevotella buccae,≤ 0.016 µg/mL
same,MIC90,Prevotella buccae,≤ 0.016 µg/mL
same,MIC,[9],≤ 0.016 µg/mL
same,MIC50,[9],≤ 0.016 µg/mL
same,MIC90,[9],0.06 µg/mL
same,MIC,Prevotella denticola,≤ 0.016 µg/mL
same,MIC50,Prevotella denticola,≤ 0.016 µg/mL
same,MIC90,Prevotella denticola,0.06 µg/mL
same,MIC,Prevotella intermedia,≤ 0.016 µg/mL
same,MIC50,Prevotella intermedia,≤ 0.016 µg/mL
same,MIC90,Prevotella intermedia,≤ 0.016 µg/mL
same,MIC,Prevotella nigrescens,≤ 0.016 µg/mL
same,MIC50,Prevotella nigrescens,≤ 0.016 µg/mL
same,MIC90,Prevotella nigrescens,≤ 0.016 µg/mL
same,MIC50,Prevotella corporis,≤ 0.016 µg/mL
same,MIC,Prevotella disiens,≤ 0.016 µg/mL
same,MIC50,Prevotella disiens,≤ 0.016 µg/mL
same,MIC,Tissierella praeacuta,0.06 µg/mL
same,MIC,Porphyromonas gingivalis,≤ 0.016 µg/mL
